“Also recorded” adds a separate entry of the source.
Legend:
[1] = system: NO production in RAW264.7 mouse macrophages stimulated by lipopolysaccharide (LPS); experiment: Inhibitory assay of NO production in LPS-stimulated RAW264.7 macrophages; format: cell-based; details: for activity at 1 µM / activity at 3 µM / activity at 10 µM / activity at 30 µM / IC50: Mus musculus; for activity at 1 µM / activity at 3 µM / activity at 10 µM / activity at 30 µM / IC50 / Inhibitory Ratio of NO % (produced NO ratio): RAW264.7 + LPS 5 μg/mL, 24 h; for activity at 1 µM / activity at 3 µM / activity at 10 µM / activity at 30 µM / Inhibitory Ratio of NO % (produced NO ratio): vehicle control = 100%, mean ± S.E., n=4; for activity at 1 µM / activity at 3 µM / activity at 10 µM: read-out: Inhibitory Ratio of NO %; for activity at 30 µM: read-out: Inhibitory Ratio of NO % (produced NO ratio); for activity at 30 µM / Inhibitory Ratio of NO % (produced NO ratio): 30 μM
Source text: Macrophages may be a potential therapeutic target for inflammatory diseases. Activated macrophages release pro-inflammatory mediators, such as NO, reactive oxygen species, interleukin-1β, tumor necrosis factor-α, and other inflammatory mediators, which play important roles in biological defense. However, the overexpression of these mediators had been implicated in diseases such as osteoarthritis, rheumatoid arthritis, and diabetes because the increased production of pro-inflammatory mediators induces severe or chronic inflammation. Isolated compounds (1–12), and N^G-monomethyl-L-arginine, acetate (L-NMMA), which is a NO synthase inhibitor and was used as a positive control, were evaluated for macrophage activation by the inhibitory assay of NO production in RAW264.7 mouse macrophages stimulated by lipopolysaccharide (LPS).
(§1) RAW264.7 cells were grown in D-MEM medium supplemented with 10% FBS and antibiotics (100 units/mL penicillin G sodium salt and 100 μg/mL streptomycin sulfate). Cells were incubated at 37 °C in a 5% CO2 humidified incubator.
An inhibitory assay of NO production was performed according to a method reported previously with slight modifications. Briefly, RAW264.7 cells (5 × 10^4 cells in 100 μL) were seeded into a 96-well microplate and incubated for 24 h. DMEM containing test samples (100 μL total volume, final concentration of 30, 10, 3, or 1 μM) dissolved in DMSO (final concentration 0.2%), and LPS (final concentration of 5 μg/mL), was added. After treatment for 24 h, the supernatant of culture medium was transferred to another 96-well microplate, and then 50 μL of 0.15% N-(1-naphtyl)ethylenediamine in H2O, and 1.5% sulfanilamide in 7.5% phosphoric acid were added. After incubation for 30 min, the absorbance of each well was read at 570 nm using a microplate reader. The optical density of vehicle control cells was assumed to be 100%.

[2] = Cytotoxicity assay (MTT) in RAW264.7 cells; format: cell-based, mouse; details: mouse, RAW264.7 cells, RAW264.7, MTT, 24 h, vehicle control = 100%, mean ± S.E., n=4, read-out: Cell Viability %
Method: as §1
(§2) Cytotoxicity assay was performed according to a method reported previously Briefly, RAW264.7 cells (5 × 10^4 cells in 100 μL) were seeded onto a 96-well microplate and incubated for 24 h. DMEM containing test samples (100 μL total volume, final concentration of 30, 10, 3, or 1 μM) dissolved in DMSO (final concentration 0.2%) was added. After treatment for 24 h, MTT solution was added. After a 3-h incubation, 20% sodium dodecyl sulfate in 0.1 M HCl was added to dissolve the formazan produced in the cells. The absorbance of each well was read at 570 nm using a microplate reader. The optical density of vehicle control cells was assumed to be 100%.

RAW264.7 cells = experiment: Cytotoxicity assay (MTT) in RAW264.7 cells; format: cell-based, mouse; details: RAW264.7, 1–30 μM
Method: as §1, §2

IC50 [1] | melting point | SMILES | activity at 1 µM [1] | activity at 3 µM [1] | activity at 10 µM [1] | activity at 30 µM [1] | viability at 24 h, 1 µM [2] | viability at 24 h, 3 µM [2] | viability at 24 h, 10 µM [2] | viability at 24 h, 30 µM [2] | Inhibitory Ratio of NO % (produced NO ratio) [1] | inhibitory effect on NO production (in words) ([1]; RAW264.7 + LPS, 1–30 μM) | cytotoxicity (in words) (RAW264.7 cells)
> 30 µM |  | CC(C)(O)[C@@H]1CC(=O)[C@]2(C)[C@H](CC[C@@]3(C)[C@H](c4ccoc4)OC(=O)[C@H]4O[C@]432)[C@]12COC(=O)C[C@@H]2O [Compound 12, ichangin] | 107 ± 4.1% | 92.6 ± 3.2% | 88.4 ± 5.5% | 73.9% | 101% | 98.1% | 98.3% | 98.3% | 73.9 ± 3.4 % |  | 
> 30 µM |  | CC1(C)OC(=O)C[C@H](O)[C@]2(C)[C@H]3CC[C@@]4(C)[C@H](c5ccoc5)OC(=O)[C@H]5O[C@]54[C@]3(C)C(=O)C[C@@H]12 [Compound 11, deacetylnomilin] | 104 ± 3.1% | 93.2 ± 3.2% | 84.7 ± 3.2% | 78.1% | 95.9% | 100% | 99.3% | 100% | 78.1 ± 3.4 % |  | 
> 30 µM |  | CC1(C)O[C@H]2CC(=O)OC[C@]23[C@H]2CC[C@@]4(C)[C@H](C5=CC(=O)OC5O)OC(=O)[C@H]5O[C@]54[C@]2(C)C(=O)C[C@@H]13 (stereo partly drawn) [Compound 7, shihulimonin A] | 99.8 ± 1.4% | 99 ± 3% | 96.8 ± 2.5% | 93.9 ± 4% | 102% | 106% | 104% | 100% |  |  | 
23.9 µM |  | [H]/N=C(/NC)NCCC[C@H](N)C(=O)O [L-NMMA, N^G-monomethyl-L-arginine, acetate, reference compound] | 93.3 ± 2.2% | 91.4 ± 0.8% | 68.9 ± 4.5% | 43.1 ± 1.1% | 102% | 102% | 98.5% | 109% |  |  | 
> 30 µM |  | COC1OC(OC)C2(C3OC(=O)C4OC45C3(C)CCC3C46COC(=O)CC4OC(C)(C)C6CC(=O)C35C)OC12 (stereo not drawn) [Compound 9, evolimorutanin] | 94.3 ± 4.3% | 85.2 ± 6.4% | 91.3 ± 2.8% | 89.9 ± 3.2% | 101% | 97.7% | 101% | 97.6% |  |  | 
> 30 µM |  | CC1(C)OC(=O)C=C[C@]2(C)[C@H]3CC[C@@]4(C)[C@H](C5=CC(=O)OC5O)OC(=O)[C@H]5O[C@]54[C@]3(C)C(=O)C[C@@H]12 (stereo partly drawn) [Compound 10, kihadanin A] | 95 ± 4.2% | 96.8 ± 1.3% | 97.7 ± 2.2% | 86.6 ± 1.6% | 105% | 102% | 98.9% | 98.6% |  |  | 
> 30 µM |  | CC1(C)O[C@H]2CC(=O)OC[C@]23[C@H]2CC[C@@]4(C)[C@H](C5=CC(O)OC5=O)OC(=O)[C@H]5O[C@]54[C@]2(C)C(=O)C[C@@H]13 (stereo partly drawn) [Compound 8, limonexic acid] | 97.2 ± 1.1% | 94.7 ± 2.4% | 90.9 ± 1.6% | 76% | 98.1% | 97.6% | 92% | 89.3% | 76.0 ± 2.2 % |  | 

More lines, now with the values behind:

SMILES | IC50 [1] | melting point | activity at 1 µM [1] | activity at 3 µM [1] | activity at 10 µM [1] | activity at 30 µM [1] | viability at 24 h, 1 µM [2] | viability at 24 h, 3 µM [2] | viability at 24 h, 10 µM [2] | viability at 24 h, 30 µM [2] | Inhibitory Ratio of NO % (produced NO ratio) [1] | inhibitory effect on NO production (in words) ([1]; RAW264.7 + LPS, 1–30 μM) | cytotoxicity (in words) (RAW264.7 cells)
CC(=O)O[C@H]1CC(=O)OC(C)(C)[C@@H]2CC(=O)[C@]3(C)[C@H](CC[C@@]4(C)[C@H](C5=CC(=O)OC5O)OC(=O)[C@H]5O[C@]543)[C@@]12C (stereo partly drawn) [Compound 1, 21,23-dihydro-21-hydroxy-23-oxonomilin] | > 30 µM | 200 to 201 °C | 110 ± 2.8% | 111 ± 1.7% | 105 ± 2.2% | 107 ± 2.5% | 99.1% | 102% | 104% | 99.3% |  |  | 
CC1(C)O[C@H]2CC(=O)OC[C@]23[C@H]2CC[C@@]4(C)[C@H](c5ccoc5)OC(=O)[C@H]5O[C@]54[C@]2(C)C(=O)C[C@@H]13 [Compound 6, limonin] | > 30 µM |  | 102 ± 4.4% | 93.4 ± 5.7% | 90.9 ± 3.1% | 86 ± 5.5% | 100% | 95.6% | 97.2% | 99.3% |  |  | 
COC(=O)CC(OC(C)=O)C1(C)C(C(C)(C)O)CC(=O)C2(C)C1CCC1(C)C(C3=CC(=O)OC3O)OC(=O)C3OC312 (stereo not drawn) [Compound 3, 21,23-dihydro-21-hydroxy-23-oxonomilinic acid methyl ester] | > 30 µM |  | 99.4 ± 0.8% | 99.4 ± 2.3% | 94.1 ± 1.9% | 80.3% | 96.8% | 94.5% | 93.2% | 93.4% | 80.3 ± 1.2 % |  | 
COC1C=C([C@@H]2OC(=O)[C@H]3O[C@@]34[C@@]2(C)CC[C@@H]2[C@@]3(C)[C@@H](OC(C)=O)CC(=O)OC(C)(C)[C@@H]3CC(=O)[C@]24C)C(=O)O1 (stereo partly drawn) [Compound 2, 21,23-dihydro-23-methoxy-21-oxonomilin] | 25.4 µM | 208 to 210 °C | 95.2 ± 1.6% | 89.8 ± 2.1% | 80.4 ± 2.1% | 39.3 ± 0.5% | 101% | 98.7% | 99.1% | 94.5% |  | exhibited NO inhibitory activity | without cytotoxicity; also recorded: without cytotoxicities
CC1(C)O[C@H]2CC(=O)OC[C@]23[C@H]2CC[C@@]4(C)[C@H](C5=CCOC5=O)OC(=O)[C@H]5O[C@]54[C@]2(C)C(=O)C[C@@H]13 [Compound 5, 21,23-Dihydro-21-oxolimonin] | > 30 µM |  | 99.5 ± 5.6% | 101 ± 4.7% | 93.8 ± 1.6% | 83.2% | 97.9% | 97.9% | 99.5% | 96.6% | 83.2 ± 5.6 % |  | 
COC1C=C([C@@H]2OC(=O)[C@H]3O[C@@]34[C@@]2(C)CC[C@@H]2[C@@]35COC(=O)C[C@@H]3OC(C)(C)[C@@H]5CC(=O)[C@]24C)C(=O)O1 (stereo partly drawn) [Compound 4, 21,23-dihydro-23-methoxy-21-oxolimonin] | > 30 µM |  | 96.2 ± 7.9% | 94 ± 2.7% | 101 ± 1.2% | 95.2 ± 3.4% | 103% | 97% | 95.1% | 91.7% |  |  | 
